Assay results from ChEMBL document CHEMBL2176918, “Design and optimization of pyrazinecarboxamide-based inhibitors of diacylglycerol acyltransferase 1 (DGAT1) leading to a clinical candidate dimethylpyrazinecarboxamide phenylcyclohexylacetic acid (AZD7687)” (J Med Chem, 2012).
Values after ≈ are worked out from the molar mass of the structure shown. Each block holds one compound with its values, some of them ahead of it.

What was measured:
[1] = Lipophilicity, log D of the compound at pH 7.4 by chromatographic method; settings: buffer
[2] = Solubility in 0.1 M phosphate buffer at pH 7.4 at 25 degC incubated for 24 hrs
[3] = target: T1, Diacylglycerol O-acyltransferase 1 (Homo sapiens, UniProt O75907)
T1 sequence (O75907 whole entry): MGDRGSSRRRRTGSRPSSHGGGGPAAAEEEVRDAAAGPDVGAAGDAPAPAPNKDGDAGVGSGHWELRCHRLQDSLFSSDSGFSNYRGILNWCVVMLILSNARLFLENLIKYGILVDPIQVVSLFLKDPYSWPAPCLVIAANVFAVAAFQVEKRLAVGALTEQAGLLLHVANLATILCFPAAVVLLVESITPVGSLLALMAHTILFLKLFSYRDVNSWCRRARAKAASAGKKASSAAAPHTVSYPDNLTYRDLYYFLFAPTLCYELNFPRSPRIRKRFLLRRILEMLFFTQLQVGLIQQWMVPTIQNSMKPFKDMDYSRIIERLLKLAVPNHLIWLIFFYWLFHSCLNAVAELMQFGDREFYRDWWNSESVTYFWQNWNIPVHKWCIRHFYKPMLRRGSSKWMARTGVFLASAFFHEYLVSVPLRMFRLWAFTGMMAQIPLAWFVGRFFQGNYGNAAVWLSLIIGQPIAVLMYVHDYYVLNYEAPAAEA
Description: (§1) Inhibition of human recombinant DGAT1 expressed in Sf9 cells by liquid scintillography

[4] = Apparent permeability from apical to basolateral side in human Caco2 cells at pH 7.4; type: ADME, cell-based; settings: Caco-2, pH 7.4
[5] = Intrinsic clearance in rat hepatocytes assessed as parent compound disappearance at 1 uM per 10^6 cells; type: ADME, cell-based, Hepatocyte; settings: read-out: CLH
[6] = target: T1, Diacylglycerol O-acyltransferase 1; settings: sf9
Description: as §1

[7] = target: T2, Sterol O-acyltransferase 1 (Homo sapiens, UniProt P35610)
T2 sequence (P35610 whole entry): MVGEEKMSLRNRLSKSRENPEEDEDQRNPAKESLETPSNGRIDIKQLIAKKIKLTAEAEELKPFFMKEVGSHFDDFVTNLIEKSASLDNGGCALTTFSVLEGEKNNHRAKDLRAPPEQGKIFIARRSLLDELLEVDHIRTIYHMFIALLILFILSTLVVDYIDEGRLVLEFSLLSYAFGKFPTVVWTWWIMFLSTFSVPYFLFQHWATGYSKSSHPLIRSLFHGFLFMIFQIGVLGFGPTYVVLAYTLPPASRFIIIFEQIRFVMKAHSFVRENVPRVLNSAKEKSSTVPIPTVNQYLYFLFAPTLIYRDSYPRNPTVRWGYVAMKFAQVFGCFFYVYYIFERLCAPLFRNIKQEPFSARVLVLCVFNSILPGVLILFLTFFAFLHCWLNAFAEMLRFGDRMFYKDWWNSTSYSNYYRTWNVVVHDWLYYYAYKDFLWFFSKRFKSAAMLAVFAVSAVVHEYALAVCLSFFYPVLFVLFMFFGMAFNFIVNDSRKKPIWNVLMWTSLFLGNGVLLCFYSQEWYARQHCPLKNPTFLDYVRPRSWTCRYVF
Description: Inhibition of human ACAT1 by liquid scintillography

[8] = Apparent permeability from apical to basolateral side in MDCK cells at pH 7.4; settings: dog
[9] = Half life in Han-Wistar rat at 2.54 to 5.4 uM/kg, po; type: ADME, organism-based; settings: in vivo
[10] = Fraction unbound in human plasma at 37 degC by LC-UV/MS method based equilibrium dialysis method
[11] = Oral bioavailability in rat; settings: in vivo
[12] = Octanol/water partition coefficient, log D of the compound at pH 7.4; type: physicochemical
[13] = Stability in pH 7.8 buffer assessed as compound degradation incubated for 45 mins; type: physicochemical; settings: pH 7.8, 0.75 h
[14] = Stability in pH 7.8 buffer assessed as acyl migration incubated for 45 mins; type: physicochemical; settings: pH 7.8, 0.75 h

chromatographic logD [1]: 1.8
SMILES: Cc1ncc(C(N)=S)nc1-c1ccc([C@H]2CC[C@H](CC(=O)O)CC2)cc1

chromatographic logD [1]: 3.1
solubility at 24 h [2]: 4 µM (≈ 1.41 µg/mL)
IC50 [3]: 690 nM
Papp A→B [4]: 58 ×10⁻⁶ cm/s
SMILES: Cc1nc(C)c(-c2ccc([C@H]3CC[C@H](CCO)CC3)cc2)nc1C(N)=O

chromatographic logD [1]: 0.9
solubility at 24 h [2]: 100 µM (≈ 44.5 µg/mL)
IC50 [3]: 100 nM
Papp A→B [4]: 2 ×10⁻⁶ cm/s
hepatocyte CLint at 1 µM [5]: 17 µL/min/1e6 cells
SMILES: Cc1nc(C)c(-c2ccc([C@H]3CC[C@H](CC(=O)NS(C)(=O)=O)CC3)cc2)nc1C(N)=O

chromatographic logD [1]: 0
SMILES: NC(=O)c1cncc(-c2ccc([C@H]3CC[C@H](CC(=O)O)CC3)cc2)c1

chromatographic logD [1]: 1.5
SMILES: Cc1nc(C)c(-c2ccc([C@H]3CC[C@@H](CC(=O)O)CC3)c(Cl)c2)nc1C(N)=O

chromatographic logD [1]: < 0
IC50 [3]: > 33000 nM
SMILES: N=C(N)c1cncc(-c2ccc([C@H]3CC[C@H](CC(=O)O)CC3)cc2)n1

chromatographic logD [1]: 1.2
IC50 [6]: Not Active
SMILES: N#C/N=C(\N)c1cncc(-c2ccc([C@H]3CC[C@H](CC(=O)O)CC3)cc2)n1

chromatographic logD [1]: 1.3
SMILES: Cc1nc(C)c(-c2ccc([C@H]3CC[C@H](CC(=O)O)CC3)c(F)c2)nc1C(N)=O

chromatographic logD [1]: 1.8
SMILES: Cc1nc(C)c(-c2ccc([C@H]3CC[C@H](CC(=O)O)CC3)c(Cl)c2)nc1C(N)=O

chromatographic logD [1]: 1.3
SMILES: Cc1ccc(C(N)=O)nc1-c1ccc([C@H]2CC[C@H](CC(=O)O)CC2)cc1

chromatographic logD [1]: 0.3
solubility at 24 h [2]: > 100 µM
IC50 [3]: 310 nM
Papp A→B [4]: 35 ×10⁻⁶ cm/s
hepatocyte CLint at 1 µM [5]: < 6 µL/min/1e6 cells
IC50 [7]: > 33000 nM
SMILES: Cc1ncc(C(N)=O)nc1-c1ccc([C@H]2CC[C@H](CC(=O)O)CC2)cc1

solubility at 24 h [2]: 562 µM (≈ 221 µg/mL)
Papp A→B [8]: 12 ×10⁻⁶ cm/s
IC50 [3]: 30 nM
half-life [9]: 7.5 h
fraction unbound [10]: 0.013
hepatocyte CLint at 1 µM [5]: < 2 µL/min/1e6 cells
IC50 [7]: 2400 nM
SMILES: Cc1nc(C)c(-c2ccc3c(c2)CC[C@]32CC[C@@H](CC(=O)O)CC2)nc1C(N)=O

chromatographic logD [1]: 2.6
IC50 [3]: > 10000 nM
SMILES: Cc1nc(C(C)C)c(-c2ccc([C@H]3CC[C@H](CC(=O)O)CC3)cc2)nc1C(N)=O

chromatographic logD [1]: 0.22
solubility at 24 h [2]: 1200 µM (≈ 407 µg/mL)
hepatocyte CLint at 1 µM [5]: 72 µL/min/1e6 cells
SMILES: Cc1ncc(C(N)=O)nc1-c1ccc([C@H]2CC[C@H](C(=O)O)CC2)cc1

chromatographic logD [1]: 2.5
IC50 [3]: > 10000 nM
SMILES: Cc1nc(-c2ccccc2)c(-c2ccc([C@H]3CC[C@H](CC(=O)O)CC3)cc2)nc1C(N)=O

chromatographic logD [1]: 0.5
IC50 [3]: > 10000 nM
SMILES: NC(=O)c1nc(-c2ccc([C@H]3CC[C@H](CC(=O)O)CC3)cc2)cnc1N

chromatographic logD [1]: 0.7
bioavailability [11]: 19%
solubility at 24 h [2]: 86 µM (≈ 38.9 µg/mL)
IC50 [3]: 110 nM
Papp A→B [4]: 0.71 ×10⁻⁶ cm/s
fraction unbound [10]: 0.078
SMILES: Cc1nc(C)c(-c2ccc([C@H]3CC[C@H](CC(=O)NC(C)(C)C(=O)O)CC3)cc2)nc1C(N)=O

chromatographic logD [1]: 2.6
IC50 [3]: > 10000 nM
SMILES: Cc1nc(C(C)C)c(C(N)=O)nc1-c1ccc([C@H]2CC[C@H](CC(=O)O)CC2)cc1

chromatographic logD [1]: < 0
IC50 [6]: Not Active
SMILES: Cc1ncc(C(=O)O)nc1-c1ccc([C@H]2CC[C@H](CC(=O)O)CC2)cc1

IC50 [6]: Not Active
SMILES: Cc1nc(C)c(-c2ccc([C@H]3CC[C@H](CC(=O)O)CC3)cc2)nc1C(=O)O

chromatographic logD [1]: 1.2
SMILES: Cc1nc(C)c(-c2ccc([C@H]3CC[C@@H](CC(=O)O)CC3)c(F)c2)nc1C(N)=O

chromatographic logD [1]: 2
SMILES: Cc1nc(C)c(-c2ccc3c(c2)CC[C@]32CC[C@@H](Cc3nnn[nH]3)CC2)nc1C(N)=O

chromatographic logD [1]: 2.7
IC50 [6]: Not Active
SMILES: Cc1ncc(C(=O)NCc2ccccc2)nc1-c1ccc([C@H]2CC[C@H](CC(=O)O)CC2)cc1

logD [12]: 1
SMILES: Cc1ncc(-c2ccc([C@H]3CC[C@H](CC(=O)O)CC3)cc2)nc1C(N)=O

chromatographic logD [1]: 1.6
solubility at 24 h [2]: 113 µM (≈ 42.9 µg/mL)
Papp A→B [8]: 13 ×10⁻⁶ cm/s
IC50 [3]: 80 nM
half-life [9]: 7.3 h
fraction unbound [10]: 0.006
hepatocyte CLint at 1 µM [5]: < 2 µL/min/1e6 cells
IC50 [7]: 15000 nM
SMILES: Cc1nc(C)c(-c2ccc(C34CCC(C(=O)O)(CC3)CC4)cc2)nc1C(N)=O

chromatographic logD [1]: 0.9
IC50 [6]: Not Active
SMILES: CNC(=O)c1cnc(C)c(-c2ccc([C@H]3CC[C@H](CC(=O)O)CC3)cc2)n1

chromatographic logD [1]: < 0
IC50 [6]: Not Active
SMILES: NCc1cncc(-c2ccc([C@H]3CC[C@H](CC(=O)O)CC3)cc2)n1

chromatographic logD [1]: 1.4
SMILES: Cc1nc(C(F)F)c(C(N)=O)nc1-c1ccc([C@H]2CC[C@H](CC(=O)O)CC2)cc1

chromatographic logD [1]: 1.7
IC50 [3]: > 9100 nM
SMILES: CCc1nc(C)c(C(N)=O)nc1-c1ccc([C@H]2CC[C@H](CC(=O)O)CC2)cc1

logD [12]: 1.6
SMILES: Cc1nc(C)c(-c2ccc([C@H]3CC[C@H](CCC(=O)O)CC3)cc2)nc1C(N)=O

chromatographic logD [1]: < 0.1
bioavailability [11]: 62%
IC50 [3]: 1900 nM
Papp A→B [4]: 29 ×10⁻⁶ cm/s
fraction unbound [10]: 0.035
IC50 [7]: > 100000 nM
SMILES: NC(=O)c1cncc(-c2ccc([C@H]3CC[C@H](CC(=O)O)CC3)cc2)n1

chromatographic logD [1]: 2
IC50 [3]: > 10000 nM
SMILES: Cc1nc(-c2ccccc2)c(C(N)=O)nc1-c1ccc([C@H]2CC[C@H](CC(=O)O)CC2)cc1

chromatographic logD [1]: 1.7
Papp A→B [8]: 18 ×10⁻⁶ cm/s
fraction unbound [10]: 0.13
hepatocyte CLint at 1 µM [5]: 77 µL/min/1e6 cells
SMILES: Cc1nc(C)c(-c2ccc([C@H]3CC[C@H](CC(N)=O)CC3)cc2)nc1C(N)=O

chromatographic logD [1]: 0.9
solubility at 24 h [2]: < 1 µM
IC50 [3]: 1900 nM
Papp A→B [4]: 13 ×10⁻⁶ cm/s
SMILES: NC(=O)C[C@H]1CC[C@H](c2ccc(-c3cncc(C(N)=O)n3)cc2)CC1

chromatographic logD [1]: 2.3
solubility at 24 h [2]: 3 µM (≈ 0.976 µg/mL)
IC50 [3]: 1200 nM
Papp A→B [4]: 38 ×10⁻⁶ cm/s
fraction unbound [10]: 0.028
hepatocyte CLint at 1 µM [5]: 36 µL/min/1e6 cells
SMILES: NC(=O)c1cncc(-c2ccc([C@H]3CC[C@H](CCO)CC3)cc2)n1

IC50 [3]: 430 nM
SMILES: Cc1nc(C)c(-c2ccc([C@H]3CC[C@@H](CC(=O)O)CC3)cc2)nc1C(N)=O

chromatographic logD [1]: 0.7
IC50 [6]: Not Active
SMILES: Cc1ncc(C(=O)N(C)C)nc1-c1ccc([C@H]2CC[C@H](CC(=O)O)CC2)cc1

chromatographic logD [1]: 0.7
IC50 [6]: Not Active
SMILES: Cc1ncc(C(=O)N2CCOCC2)nc1-c1ccc([C@H]2CC[C@H](CC(=O)O)CC2)cc1

chromatographic logD [1]: < 0.1
solubility at 24 h [2]: > 100 µM
IC50 [3]: 1100 nM
hepatocyte CLint at 1 µM [5]: < 2 µL/min/1e6 cells
SMILES: CC(C)(NC(=O)C[C@H]1CC[C@H](c2ccc(-c3cncc(C(N)=O)n3)cc2)CC1)C(=O)O

chromatographic logD [1]: 1.4
SMILES: Cc1nc(C)c(-c2ccc3c(c2)CC[C@]32CC[C@@H](c3nnn[nH]3)CC2)nc1C(N)=O

chromatographic logD [1]: 0.8
SMILES: NC(=O)c1cccc(-c2ccc([C@H]3CC[C@H](CC(=O)O)CC3)cc2)n1

chromatographic logD [1]: 1.3
SMILES: Cc1nc(C)c(-c2ccc(C34CCC(CC(=O)O)(CC3)CC4)cc2)nc1C(N)=O

Stability [13]: Stable
Stability [14]: Stable
SMILES: Cc1nc(C)c(-c2ccc([C@H]3CC[C@H](CC(=O)O[C@@H]4O[C@H](C(=O)O)[C@@H](O)[C@H](O)[C@H]4O)CC3)cc2)nc1C(N)=O

half-life [9]: 9 h
fraction unbound [10]: 0.009
hepatocyte CLint at 1 µM [5]: < 2 µL/min/1e6 cells
SMILES: Cc1nc(C)c(-c2ccc([C@H]3CC[C@H](Cc4nnn[nH]4)CC3)cc2)nc1C(N)=O

chromatographic logD [1]: 1.5
SMILES: CCc1nc(C)c(-c2ccc([C@H]3CC[C@H](CC(=O)O)CC3)cc2)nc1C(N)=O
